A value given as a limit tells only on which side of the number the result lay.

For the assay, the target named is T1, Recombinant human IKKβ (IKK2) (Homo sapiens, UniProt O14920).
T1 construct: Recombinant human IKKβ (residues 1-737); GST (C); made in house
T1 sequence (O14920 1-737): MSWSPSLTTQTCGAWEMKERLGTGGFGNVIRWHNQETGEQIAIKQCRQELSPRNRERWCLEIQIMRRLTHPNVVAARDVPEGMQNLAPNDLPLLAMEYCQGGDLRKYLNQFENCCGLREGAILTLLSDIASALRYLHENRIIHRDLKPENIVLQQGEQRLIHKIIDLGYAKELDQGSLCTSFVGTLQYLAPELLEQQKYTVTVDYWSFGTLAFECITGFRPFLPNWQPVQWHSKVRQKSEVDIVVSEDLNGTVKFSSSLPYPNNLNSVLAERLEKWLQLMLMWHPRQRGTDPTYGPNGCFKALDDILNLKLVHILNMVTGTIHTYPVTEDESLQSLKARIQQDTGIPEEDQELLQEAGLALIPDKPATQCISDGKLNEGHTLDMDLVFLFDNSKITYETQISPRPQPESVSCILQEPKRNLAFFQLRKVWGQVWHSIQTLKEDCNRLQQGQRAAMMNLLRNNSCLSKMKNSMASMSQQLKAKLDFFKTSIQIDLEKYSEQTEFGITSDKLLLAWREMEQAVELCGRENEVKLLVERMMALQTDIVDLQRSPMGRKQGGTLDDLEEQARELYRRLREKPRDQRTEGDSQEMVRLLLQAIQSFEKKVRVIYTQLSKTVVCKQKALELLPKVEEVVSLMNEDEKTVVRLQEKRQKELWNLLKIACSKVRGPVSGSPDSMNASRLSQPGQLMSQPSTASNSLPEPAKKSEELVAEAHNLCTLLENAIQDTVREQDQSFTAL
As to the kind of experiment: IKK2 Assay (TR-FRET, phosphorylation of GST-IκBα). Type of assay: biochemical. To be noted: recombinant human IKKβ (residues 1-737), 5 nM; GST-IκBα 25 nM, ATP 1 μM; 30 minutes at room temperature; read-out: pIC50 against IKK2 (converted). The protocol: Recombinant human IKKβ (residues 1-737) was expressed in baculovirus as a C-terminal GST-tagged fusion protein, and its activity was assessed using a time-resolved fluorescence resonance energy transfer (TR-FRET) assay. Briefly, IKK2 (5 nM final) diluted in assay buffer (50 mM HEPES, 10 mM MgCl2, 1 mM CHAPS pH 7.4 with 1 mM DTT and 0.01% w/v BSA) was added to wells containing various concentrations of compound or DMSO vehicle (3% final). The reaction was initiated by the addition of GST-IκBα substrate (25 nM final)/ATP (1 μM final), in a total volume of 30 μl. The reaction was incubated for 30 minutes at room temperature, then terminated by the addition of 15 μl of 50 mM EDTA. Detection reagent (15 μl) in buffer (100 mM HEPES pH 7.4, 150 mM NaCl and 0.1% w/v BSA) containing antiphosphoserine-IκBα-32/36 monoclonal antibody 12C2 (Cell Signalling Technology, Beverly Mass., USA) labelled with W-1024 europium chelate (Wallac OY, Turku, Finland), and an APC-labelled anti-GST antibody (Prozyme, San Leandro, Calif., USA) was added and the reaction was further incubated for 60 minutes at room temperature. The degree of phosphorylation of GST-IκBα was measured using a Packard Discovery plate reader (Perkin-Elmer Life Sciences, Pangbourne, UK) as a ratio of specific 665 nm energy transfer signal to reference europium 620 nm signal.

As to `NC(=O)c1cc2cc(-c3ccccc3)cc(C(N)=O)c2[nH]1` [Example 2, 5-phenyl-1H-indole-2,7-dicarboxamide], the IC50 is not above 10 µM. As for `Cc1cc2cc(-c3ccccc3)cc(C(N)=O)c2[nH]1` [Example 1, 2-methyl-5-phenyl-1H-indole-7-carboamide], the figure is not above 10 µM.

(Values after patent US20080293802A1, “Chemical Compounds” (Smithline Beecham Corporation, priority 2005, published 2008).)
